The results in this text go back to patent US20230151342A1, “ZINC FINGER DEGRADATION DOMAINS” (THE BROAD INSTITUTE, INC, priority 2020, published 2023).

Assay [1] concerns Jurkat cells expressing individual zinc fingers in the protein degradation reporter. In words: Validation of individual zinc fingers in eGFP/mCherry protein degradation reporter (single reporter degradation experiments). The format is cell-based. As to the method: FIG. 18A-18B Validation of individual hybrid zinc finger degrons. (FIG. 18A) Vehicle control-normalized eGFP/mCherry fluorescence ratios measured by flow cytometry for Jurkat cells expressing the indicated minimal 23 amino acid zinc finger degron constructs after treatment with pomalidomide or vehicle control. Experiments were performed in triplicate and error bars indicate standard deviation. […] (FIG. 18B) IC50 values for lenalidomide- or pomalidomide-induced degradation of endogenous and hybrid zinc fingers calculated from single reporter degradation experiments. (FIG. 18C) Jurkat cells expressing the 19BBz-d91.3 CAR were treated overnight with lenalidomide and the E1 inhibitor MLN7243 (500 nM), the Neddylation inhibitor […] (5000 nM), the lysosomal acidification inhibitor Chloroquine (50,000 nM), or the lysosomal acidification inhibitor Bafilomycin A (100 nM). CAR degradation requires ubiquitin ligase and Cullin-RING ligase function, and is insensitive to inhibition of autophagy.
FIG. 23. Validation of individual hybrid zinc finger degrons. Individual 23 amino acid zinc finger domains were cloned into the Cilantro 2 protein degradation reporter lentivector. Jurkat cells were transduced with each of these viruses. The GFP/mCherry ratio was calculated in the presence of various thalidomide analogs, indicative of drug-dependent degradation. Dark Gray=hybrid zinc fingers. Light Gray=endogenous zinc fingers. Dotted line=ZFP91-IKZF3.
Jurkat cells were created expressing each of the 6 hybrid and 8 associated parent ZFs and subjected them to a range of doses of lenalidomide, pomalidomide, avadomide, and iberdomide. […] The IC50 for degradation was lower for the 6 hybrid ZFs than their parent ZFs (FIG. 18B). […] One of these validated hybrids, ZFP91-IKZF3, was chosen with 1.6-6.0-times lower IC50 for degradation than IKZF3 across the tested thalidomide derivatives (FIG. 11G) hereafter termed “d91.3”, as a super degron tag for further CAR engineering, which was incorporated for evaluation of on and off-switch CARs.
Jurkat cells expressing a library of 440 C2H2 zinc fingers in a eGFP/mCherry protein degradation reporter vector were treated with DMSO or thalidomide analog drug for 16 hours. mCherry^+eGFP^low cell populations were isolated by FACS in triplicate, and the relative frequency of individual ZFs was quantified with next-generation sequencing. For validation, Jurkat cells were engineered to express individual zinc fingers in the protein degradation reporter; the eGFP:mCherry ratio was determined by flow cytometry after 16 hour incubation with varying concentrations of thalidomide analogs.

The target in assay [2] is CRBN (substrate receptor of the CRL4^CRBN E3 ubiquitin ligase) (UniProt Q96SW2 1-442). In words: cell-based or functional assay.
CRBN (substrate receptor of the CRL4^CRBN E3 ubiquitin ligase), sequence (Q96SW2 whole entry): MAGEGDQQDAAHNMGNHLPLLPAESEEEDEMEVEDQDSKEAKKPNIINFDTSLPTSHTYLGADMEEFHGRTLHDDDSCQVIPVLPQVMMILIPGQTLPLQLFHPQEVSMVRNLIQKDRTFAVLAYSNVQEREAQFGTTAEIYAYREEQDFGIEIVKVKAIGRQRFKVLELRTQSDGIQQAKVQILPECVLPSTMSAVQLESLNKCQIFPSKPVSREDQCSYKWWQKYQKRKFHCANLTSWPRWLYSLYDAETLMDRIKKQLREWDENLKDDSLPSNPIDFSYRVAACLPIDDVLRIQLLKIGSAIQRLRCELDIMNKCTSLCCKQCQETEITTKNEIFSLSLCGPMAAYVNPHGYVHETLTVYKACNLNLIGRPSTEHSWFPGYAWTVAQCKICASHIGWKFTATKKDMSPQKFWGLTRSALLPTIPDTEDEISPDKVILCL
Where [3] appears, read: CC-122-induced degradation, eGFP:mCherry ratio, 16 hour incubation, read-out: EC50 cc122.
[4] abbreviates: lenalidomide-induced degradation, eGFP:mCherry ratio, 16 hour incubation, read-out: EC50 len.
Where [5] appears, read: pomalidomide-induced degradation, eGFP:mCherry ratio, 16 hour incubation, read-out: EC50 pom.
[6] abbreviates: lenalidomide, repeat experiment, read-out: EC50 len repeat.

Read-outs that look alike come from different tables or passages of the source. Where no end group is shown, it is not given here.

In general, EC50 refers to the concentration that produces a half-maximal response. Consider “FVCPRCGRGFSQPKSLARHLRLH [HZnF_05, reference compound]”, for which the half-maximal effective concentration (EC50) in assay [1] (setting [3]) worked out at 2.93 nM; in assay [1] (setting [4]), 48 nM; in assay [1] (setting [5]), 8.55 nM.

Take YQCKVCGRAFKRLSTLIQHQKVH [HZnF_15]: the concentration giving a half-maximal response (EC50) in assay [1] (setting [3]) was 35.2 nM; in assay [1] (setting [4]), 71.9 nM; in assay [1] (setting [5]), 5.12 nM.

Regarding “YRCRACGRACSRLSTLIQHQKVH [HZnF_03, reference compound]”, the concentration giving a half-maximal response (EC50) in assay [1] (setting [3]) is 29.5 nM; in assay [1] (setting [4]), 55.2 nM; in assay [1] (setting [5]), 4.47 nM.

As for LQCEICGFTCRQPKSLARHLRLH [HZnF_23], the 50% effective concentration (EC50) was 0.983 nM in assay [1] (setting [3]), 4.66 nM in assay [1] (setting [6]), 6.45 nM in assay [1] (setting [4]) and 0.146 nM in assay [1] (setting [5]).

On to LQCEICGFTCRRHSHLIEHLKRH [HZnF_17], for which the concentration giving a half-maximal response (EC50) worked out at 73.4 nM in assay [1] (setting [3]), 149 nM in assay [1] (setting [4]) and 5.29 nM in assay [1] (setting [5]).

With “YGCNECGKNFGRHSHLIEHLKRH [HZnF_09, reference compound]”, the EC50 in assay [1] (setting [3]) worked out at 68.2 nM; in assay [1] (setting [5]), 0.224 nM.

Take YQCKVCGRAFKQKGNLLRHIKLH [HZnF_14]: the half-maximal effective concentration (EC50) in assay [1] (setting [3]) is 26 nM; in assay [1] (setting [4]), 83.1 nM; in assay [1] (setting [5]) it was 5.19 nM.

With “HECKLCGASFRTKGSLIRHHRRH [HZnF_07, reference compound]”, the results for the half-maximal effective concentration (EC50) in assay [1] (setting [3]), in assay [1] (setting [4]) and in assay [1] (setting [5]) were 58.5 nM, 34.8 nM and 11.3 nM, respectively.

Consider “LQCEICGYQCRQRASLNWHMKKH [HZnF_12, reference compound]”, for which the half-maximal effective concentration (EC50) amounted to 37 nM in assay [1] (setting [3]) and 75.1 nM in assay [1] (setting [4]).

On to “LQCEVCGFQCRQRASLKYHMTKH [HZnF_01, reference compound]”, for which the EC50 in assay [1] (setting [3]) amounted to 73.6 nM; in assay [1] (setting [4]) it was 78.6 nM; in assay [1] (setting [5]) it was 7.41 nM.

As for “FQCNQCGASFTQKGNLLRHIKLH [HZnF_27, reference compound]”, the concentration for a half-maximal effect (EC50) stood at 33.5 nM in assay [1] (setting [3]), 28.2 nM in assay [1] (setting [6]), 21.9 nM in assay [1] (setting [4]) and 3.1 nM in assay [1] (setting [5]).

Regarding “FACVICGRKFRNRGLMQKHLKNH [HZnF_11, reference compound]”, the EC50 in assay [1] (setting [3]) worked out at 179 nM; in assay [1] (setting [4]) it was 59.9 nM; in assay [1] (setting [5]), 18.8 nM.

Turning to FQCNQCGASFTRLSTLIQHQKVH [HZnF_06], the EC50 in assay [1] (setting [3]) came to 56.1 nM; in assay [1] (setting [4]), 433 nM; in assay [1] (setting [5]) it was 21.9 nM.

Consider “LQCEICGFTCRQKGNLLRHIKLH (FHCNQCGASFTQKGNLLRHIKLH) [HZnF_26]”, for which the EC50 in assay [1] (setting [3]) is 13.4 nM; in assay [1] (setting [6]) it was 29.4 nM; in assay [1] (setting [4]), 22.9 nM; in assay [1] (setting [5]) it was 0.78 nM.

As to “FQCPICGLVIKRKSYWKRHMVIH [HZnF_16, reference compound]”, the 50% effective concentration (EC50) in assay [1] (setting [3]) is 50.2 nM; in assay [1] (setting [4]) it was 60.5 nM; in assay [1] (setting [5]), 8.06 nM.

For LQCEICGYQCRQPKSLARHLRLH [HZnF_22], the EC50 in assay [1] (setting [3]) amounted to 2.42 nM; in assay [1] (setting [6]), 6.59 nM; in assay [1] (setting [4]), 12.2 nM; in assay [1] (setting [5]) it was 0.212 nM.

As for LQCEICGYQCRRKDRMSYHVRSH [HZnF_25], the 50% effective concentration (EC50) in assay [1] (setting [3]) worked out at 0.693 nM; in assay [1] (setting [6]), 3.53 nM; in assay [1] (setting [4]), 6.64 nM. Moreover, the “pomalidomide-dependent degradation compared with parent ZF” value in assay [1] (pomalidomide) is “more efficient pomalidomide-dependent degradation than either parent ZF”.

For the molecule LQCEVCGFQCRQPKSLARHLRLH [HZnF_24], the concentration giving a half-maximal response (EC50) in assay [1] (setting [3]) was 5.67 nM; in assay [1] (setting [6]), 15 nM; in assay [1] (setting [4]), 10.1 nM; in assay [1] (setting [5]), 0.46 nM.

In the case of “LQCEICGYQCRRLSTLIQHQKVH [HZnF_1, label misprinted]”, the EC50 in assay [1] (setting [3]) came to 7.07 nM; in assay [1] (setting [4]), 22.5 nM; in assay [1] (setting [5]), 1.86 nM.

Consider FQCNQCGASFTQPKSLARHLRLH [HZnF_20], for which the EC50 is 5.22 nM in assay [1] (setting [3]), 6.09 nM in assay [1] (setting [6]), 4.59 nM in assay [1] (setting [4]) and 1.05 nM in assay [1] (setting [5]).

For the molecule “LQCEICGFTCRQKASLNWHMKKH [HZnF_13, reference compound]”, the values for the EC50 in assay [1] (setting [3]), in assay [1] (setting [4]) and in assay [1] (setting [5]) were 33 nM, 57.8 nM and 5.47 nM, respectively.

With “YSCPVCGLRFKRKDRMSYHVRSH [HZnF_02, reference compound]”, the half-maximal effective concentration (EC50) was found to be 176 nM in assay [1] (setting [3]) and 100 nM in assay [1] (setting [4]).

In the case of FQCNQCGASFTRHSHLIEHLKRH [HZnF_10], the concentration for a half-maximal effect (EC50) in assay [1] (setting [3]) came to 32.4 nM; in assay [1] (setting [4]), 55.4 nM; in assay [1] (setting [5]), 9.05 nM.

Turning to FQCNQCGASFTTKGSLIRHHRRH [HZnF_08], the EC50 in assay [1] (setting [3]) was 10.1 nM; in assay [1] (setting [4]) it was 18.3 nM; in assay [1] (setting [5]), 3.61 nM.

Turning to FQCPICGLVIKRHSHLIEHLKRH [HZnF_21], the EC50 in assay [1] (setting [3]) came out at 2.46 nM; in assay [1] (setting [6]), 8.23 nM; in assay [1] (setting [4]), 11.2 nM; in assay [1] (setting [5]) it was 0.311 nM.

With “YQCKVCGRAFKRVSHLTVHYRIH [8HZnF__19, label misprinted, reference compound]”, the concentration giving a half-maximal response (EC50) in assay [1] (setting [3]) came to 125 nM; in assay [1] (setting [4]) it was 248 nM; in assay [1] (setting [5]), 16.9 nM.

For the molecule LQCEICGFTCRWSSHYQYHLRQH [HZnF_04], the results for the concentration giving a half-maximal response (EC50) in assay [1] (setting [3]), in assay [1] (setting [4]) and in assay [1] (setting [5]) were 101 nM, 324 nM and 14.1 nM, respectively.

Turning to LQCEICGYQCRQRASLNWHMKKH (not fully specified; cysteine pairing not given here) [ZN653_556_578-ZN653_556_578_J1], in assay [2], the “EC50 pom: pomalidomide-induced degradation, eGFP/mCherry reporter, Jurkat” value (from here on “EC50 pom … eGFP/mCherry reporter, Jurkat”) was 5.17 nM.

As to LQCEICGYQCRRKDRMSYHVRSH (not fully specified; cysteine pairing not given here) [ZN653_556_578-PATZ1_383_405_J1], the “EC50 pom … eGFP/mCherry reporter, Jurkat” value in assay [2] was determined as 0.16 nM.

For YSCPVCGLRFKRKDRMSYHVRSH (not fully specified; cysteine pairing not given here) [PATZ1_383_405-PATZ1_383_405_J1], the “EC50 pom … eGFP/mCherry reporter, Jurkat” value in assay [2] was found to be 32.4 nM.
